From patent US9889181B2, “Bacteriophage lysin and antibiotic combinations against gram positive bacteria” (priority 2012, dated 2018)
Converted amounts (≈) assume the structure as drawn. Like-named read-outs stand apart in the source and are kept apart here.

Experiments:
[1] = test system: 20 different MSSA and 42 MRSA strains; test: Time-kill assay, single agents at 1×MIC; assay type: cell-based, Staphylococcus aureus; conditions: 1×MIC; for comparative kill: up to 6 hours
Procedure: In order to more fully evaluate PlySs2's applicability to clinical Staphylococcal infections, time kill studies were undertaken against numerous Staphylococcus aureus strains, including methicillin resistant and methicillin sensitive strains. Time kill assays were performed according to CLSI methodology (CLSI document M07-A9 column 32 No. 2) on 42 methicillin resistant S. aureus (MRSA) strains and 20 methicillin sensitive S. aureus (MSSA) strains. Cultures of each strain (5.5×10^5-1×10^6 starting inoculum) were treated with PlySs2 lysin and with antibiotics daptomycin, oxacillin or vancomycin for comparison for 6 hours with aeration. MRSA and MSSA strains were treated with PlySs2, daptomycin and vancomycin. MSSA strains were also treated with oxacillin. 1×MIC concentrations of the different antibiotics were utilized, based on published and established antibiotic MIC values. PlySs2 lysin treatment was at approximately 1×MIC as previously determined (see TABLE 2 above). Culture aliquots were removed hourly up to 6 hours (time points taken at 15 and 30 min, 1 hr, 2 hr, 3 hr, 4 hr, 5 hr, and 6 hr) and added to a PBS/charcoal solution (to inactivate each drug), which was then serially diluted and plated for bacterial viability. The resulting log CFU/mL was plotted for each culture. Growth controls were included for each strain and represent bacterial growth in the absence of any antibacterial agent. Exemplary log kill curves for selected MRSA strains are depicted in FIG. 1. Exemplary log kill curves for selected MSSA strains are depicted in FIG. 2.
Rapid-kill kinetics are desirable in the clinical setting to treat patients with fulminant bacterial infections.

MRSA S. aureus strains = test: Dual agent MIC assay (PlySs2 and daptomycin); assay type: cell-based, Staphylococcus aureus
S. aureus cell envelope = test: BODIPY-labeled antibiotic cell envelope binding time course; assay type: cell-based
Excerpt: As a complement to the synergy studies, daptomycin and vancomycin cell envelope-binding was examined using BODIPY-fluorescein-labeled antibiotics in the presence and absence of sub-MIC levels of CF-301.

[2] = test system: MRSA strain MW2 and MSSA strain ATCC 29213; assay type: cell-based, Staphylococcus aureus
MRSA strain 269 (MW2) = test: Combination MIC in 15% surfactant (Survanta); assay type: cell-based, Staphylococcus aureus
MRSA strains = test: Time kill assay, PlySs2 and antibiotic alone or in combination; assay type: cell-based, Staphylococcus aureus; conditions: ½ MIC of PlySs2 or ¼ MIC of vancomycin alone
[3] = test system: MRSA strain MW2 (also strains 738, 832); assay type: in vivo, BALB/c mice; conditions: FIG. 27E; 10^9 CFU, dosing at 2 hours; vancomycin 110 mg/kg twice daily, PlySs2 5.25 mg/kg
[4] = test system: MRSA Staphylococcus aureus strain (MW2); test: microbe, parasite or virus in culture; assay type: cell-based

Compound	comparative kill [1]	time to reach bactericidal levels (≧3-log10 reduction in CFUs) [1] [hours]	MIC alone (MRSA S. aureus strains; MRSA strain 269 (MW2), single-agent) [µg/mL]	daptomycin MIC with 0.25×MIC PlySs2 (MRSA S. aureus strains; dual agent MIC assay, strain not named) [µg/mL]	time to antibiotic penetration (BODIPY-labeled daptomycin binding) (S. aureus cell envelope; in the presence of CF-301 at 1/32nd MIC) [min]	time to antibiotic penetration (BODIPY-labeled daptomycin binding) (S. aureus cell envelope; without CF-301) [min]	fold inhibition of MIC in the presence of Survanta ([2]; surfactant concentration of 1.25%)	fold inhibition of MIC in the presence of Survanta ([2]; surfactant up to 15%, vs MIC without surfactant)	effective combination concentration as fraction of the MIC (MRSA strain 269 (MW2))	effective concentration in PlySs2 plus daptomycin combination MIC (MRSA strain 269 (MW2); 24 hours) [µg/mL]	effect alone at sub-MIC doses up to 6 hours (MRSA strains)	time to cell wall-labeling with BODIPY-labeled vancomycin (S. aureus cell envelope; in the presence of CF-301 (⅛^th MIC)) [min]	time to cell wall-labeling with BODIPY-labeled vancomycin (S. aureus cell envelope; without CF-301) [min]	24 hour survival rate [3] [%]	72 hour survival rate [3] [%]	fold increase in vancomycin MIC ([4]; 25-day, vancomycin-only) [fold]	vancomycin MIC, ending values ([4]; 25 day serial passage, PlySs2 (8 ug/ml) plus vancomycin (three cultures)) [µg/mL]	MIC ([4]; Staphylococcus aureus, MRSA, read-out: vancomycin MIC, starting value, MW2) [µg/mL]
Cc1onc(-c2ccccc2)c1C(=O)N[C@@H]1C(=O)N2[C@@H]1SC(C)(C)[C@@H]2C(=O)O [Oxacillin, oxacillin, reference compound]	least effective																	
CCCCCCCCCC(=O)N[C@@H](Cc1c[nH]c2ccccc12)C(=O)N[C@H](CC(N)=O)C(=O)N[C@@H](CC(=O)O)C(=O)N[C@@H]1C(=O)NCC(=O)N[C@@H](CCCN)C(=O)N[C@@H](CC(=O)O)C(=O)N[C@H](C)C(=O)N[C@@H](CC(=O)O)C(=O)NCC(=O)N[C@H](CO)C(=O)N[C@@H]([C@H](C)CC(=O)O)C(=O)N[C@@H](CC(=O)c2ccccc2N)C(=O)O[C@@H]1C [Daptomycin, reference compound]	most effective against most strains	6	1 (≈ 0.617 µM)	0.0075	15	180	more than 20 fold	up to 256 fold	1/1024	0.25								
CN[C@H](CC(C)C)C(=O)N[C@H]1C(=O)N[C@@H](CC(N)=O)C(=O)N[C@H]2C(=O)N[C@H]3C(=O)N[C@H](C(=O)N[C@H](C(=O)O)c4cc(O)cc(O)c4-c4cc3ccc4O)[C@H](O)c3ccc(c(Cl)c3)Oc3cc2cc(c3O[C@@H]2O[C@H](CO)[C@@H](O)[C@H](O)[C@H]2O[C@H]2C[C@](C)(N)[C@H](O)[C@H](C)O2)Oc2ccc(cc2Cl)[C@H]1O [Vancomycin, vancomycin]											ineffective or poorly effective	≤ 5	30	20	3	16	2	1 (≈ 0.69 µM)
